Laboratory results as given in PMC6199744, “Development of Chemical Proteomics for the Folateome and Analysis of the Kinetoplastid Folateome” (ACS Infectious Diseases, 2018).
Where two headings read alike, the source gives them in different places.

What was measured:
Type in all cases: binding
[1] = molecular target: T1, HeLa cell extract proteins (Homo sapiens, UniProt P31930)
T1 construct: endogenous in cells; host or cells: HeLa cell extract
T1 sequence (P31930 35-480): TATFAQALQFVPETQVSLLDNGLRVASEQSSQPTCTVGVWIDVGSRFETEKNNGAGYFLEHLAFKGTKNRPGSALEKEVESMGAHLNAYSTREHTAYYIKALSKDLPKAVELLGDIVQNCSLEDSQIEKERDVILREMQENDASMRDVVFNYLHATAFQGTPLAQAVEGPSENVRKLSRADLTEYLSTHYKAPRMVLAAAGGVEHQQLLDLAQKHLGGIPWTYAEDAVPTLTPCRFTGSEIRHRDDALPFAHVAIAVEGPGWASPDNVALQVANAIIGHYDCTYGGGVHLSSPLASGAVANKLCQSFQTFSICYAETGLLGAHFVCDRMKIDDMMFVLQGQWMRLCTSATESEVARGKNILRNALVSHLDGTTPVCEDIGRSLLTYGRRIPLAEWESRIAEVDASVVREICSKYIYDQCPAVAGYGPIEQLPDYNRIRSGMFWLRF

[2] = molecular target: T2, HeLa cell extract proteins (Homo sapiens, UniProt P09497)
T2 construct: endogenous in cells; host or cells: HeLa cell extract
T2 sequence (P09497 1-229): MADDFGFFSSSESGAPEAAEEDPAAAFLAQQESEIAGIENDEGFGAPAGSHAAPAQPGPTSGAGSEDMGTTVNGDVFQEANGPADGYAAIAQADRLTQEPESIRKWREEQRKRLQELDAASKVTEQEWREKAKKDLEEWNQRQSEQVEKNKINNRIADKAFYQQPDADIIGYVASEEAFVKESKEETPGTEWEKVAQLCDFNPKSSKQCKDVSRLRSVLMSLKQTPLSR

[3] = molecular target: T3, HeLa cell extract proteins (Homo sapiens, UniProt Q9Y5Y0)
T3 construct: endogenous in cells; host or cells: HeLa cell extract
T3 sequence (Q9Y5Y0 1-555): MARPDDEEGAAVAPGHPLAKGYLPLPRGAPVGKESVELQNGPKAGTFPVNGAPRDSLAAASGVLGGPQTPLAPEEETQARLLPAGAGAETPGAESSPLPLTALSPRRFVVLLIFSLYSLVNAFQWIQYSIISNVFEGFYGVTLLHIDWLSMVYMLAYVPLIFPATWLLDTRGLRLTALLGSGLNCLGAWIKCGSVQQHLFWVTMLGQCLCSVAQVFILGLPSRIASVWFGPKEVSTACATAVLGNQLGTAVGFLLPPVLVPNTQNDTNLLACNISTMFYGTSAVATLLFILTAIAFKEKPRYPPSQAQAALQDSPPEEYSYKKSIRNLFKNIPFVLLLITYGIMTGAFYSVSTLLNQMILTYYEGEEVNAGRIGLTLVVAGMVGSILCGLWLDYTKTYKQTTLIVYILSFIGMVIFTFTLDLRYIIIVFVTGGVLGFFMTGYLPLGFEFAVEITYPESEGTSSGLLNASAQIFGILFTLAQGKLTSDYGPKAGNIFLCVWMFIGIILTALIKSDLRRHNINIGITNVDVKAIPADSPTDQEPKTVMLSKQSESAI

[4] = molecular target: T4, HeLa cell extract proteins (Homo sapiens, UniProt P62979)
T4 construct: endogenous in cells; host or cells: HeLa cell extract

[5] = molecular target: T5, HeLa cell extract proteins (Homo sapiens, UniProt P52789)
T5 construct: endogenous in cells; host or cells: HeLa cell extract
T5 sequence (P52789 1-917): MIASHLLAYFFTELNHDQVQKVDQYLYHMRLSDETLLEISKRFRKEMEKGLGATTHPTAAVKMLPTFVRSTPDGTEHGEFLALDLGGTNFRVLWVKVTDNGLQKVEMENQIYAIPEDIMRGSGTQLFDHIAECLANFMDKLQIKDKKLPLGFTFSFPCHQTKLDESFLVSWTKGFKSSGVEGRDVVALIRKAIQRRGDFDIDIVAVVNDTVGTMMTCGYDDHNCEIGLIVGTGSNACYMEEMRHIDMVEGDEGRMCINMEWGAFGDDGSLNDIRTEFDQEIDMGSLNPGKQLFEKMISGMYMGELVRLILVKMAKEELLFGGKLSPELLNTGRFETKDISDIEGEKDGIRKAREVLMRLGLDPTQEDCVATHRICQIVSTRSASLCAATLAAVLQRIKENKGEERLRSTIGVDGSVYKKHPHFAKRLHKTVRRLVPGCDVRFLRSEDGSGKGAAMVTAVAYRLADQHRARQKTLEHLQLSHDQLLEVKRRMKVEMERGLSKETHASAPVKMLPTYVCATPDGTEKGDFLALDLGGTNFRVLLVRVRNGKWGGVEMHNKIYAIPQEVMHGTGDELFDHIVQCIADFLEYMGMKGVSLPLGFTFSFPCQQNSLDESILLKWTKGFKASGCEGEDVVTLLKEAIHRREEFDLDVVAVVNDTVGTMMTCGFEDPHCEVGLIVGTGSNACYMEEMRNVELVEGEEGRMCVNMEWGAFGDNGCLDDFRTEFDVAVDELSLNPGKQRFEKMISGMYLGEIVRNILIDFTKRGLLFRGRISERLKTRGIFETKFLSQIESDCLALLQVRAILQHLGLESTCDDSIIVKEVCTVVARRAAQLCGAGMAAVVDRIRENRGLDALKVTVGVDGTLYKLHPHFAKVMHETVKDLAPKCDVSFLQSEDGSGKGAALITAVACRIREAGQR

[6] = molecular target: T6, HeLa cell extract proteins (Homo sapiens, UniProt Q9GZT8)
T6 construct: endogenous in cells; host or cells: HeLa cell extract
T6 sequence (Q9GZT8 1-377): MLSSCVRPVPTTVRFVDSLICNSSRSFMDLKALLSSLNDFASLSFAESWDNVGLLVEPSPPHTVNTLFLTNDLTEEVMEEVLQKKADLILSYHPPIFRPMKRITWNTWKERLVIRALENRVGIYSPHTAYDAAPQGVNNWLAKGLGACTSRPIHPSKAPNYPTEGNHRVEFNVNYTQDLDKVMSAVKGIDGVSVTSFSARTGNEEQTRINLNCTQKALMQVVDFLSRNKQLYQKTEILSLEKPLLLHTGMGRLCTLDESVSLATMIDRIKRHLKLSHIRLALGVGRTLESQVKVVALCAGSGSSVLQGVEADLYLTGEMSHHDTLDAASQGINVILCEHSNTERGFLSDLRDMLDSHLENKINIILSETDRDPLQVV

## Nc1nc2c(c(=O)[nH]1)N(C=O)C(CNc1ccc(C(=O)N[C@@H](CCC(=O)O)C(=O)O)cc1)CN2 (stereo partly drawn) [LEU, leucovorin]
[1]; HeLa, captured protein UQCRC1
  fold changes relative to vehicle control: 0.99
[2]; HeLa, captured protein CLTB
  fold changes relative to vehicle control: 0.99
[3]; protein FLVCR1, HeLa
  fold changes relative to vehicle control: 0.57
[4]
  fold changes relative to vehicle control: 1.29
[5]; HeLa, protein HK2
  fold changes relative to vehicle control: 1
[6]; protein NIF3L1, HeLa
  fold changes relative to vehicle control: 0.95

## NCCCNc1ccc(C(=O)NC(CCC(=O)O)C(=O)O)cc1 (stereo not drawn) [compound 7]
[1]; HeLa, captured protein UQCRC1
  fold changes relative to vehicle control: 0.99
[2]; HeLa, captured protein CLTB
  fold changes relative to vehicle control: 1.14
[3]; protein FLVCR1, HeLa
  fold changes relative to vehicle control: 0.57
[4]
  fold changes relative to vehicle control: 1.22
[5]; HeLa, protein HK2
  fold changes relative to vehicle control: 1.03
[6]; protein NIF3L1, HeLa
  fold changes relative to vehicle control: 0.94

## CCCCCCOc1cccc(Cc2cnc(N)nc2N)c1 [compound 2]
[1]; HeLa, protein UQCRC1
  fold changes relative to vehicle control: 0.92
[2]; HeLa, protein CLTB
  fold changes relative to vehicle control: 1.18
[3]; HeLa, protein FLVCR1
  fold changes relative to vehicle control: 0.95
[4]; protein RPS27A, HeLa
  fold changes relative to vehicle control: 1.5
[5]; protein HK2, HeLa
  fold changes relative to vehicle control: 1.43
[6]; captured protein NIF3L1, HeLa
  fold changes relative to vehicle control: 0.97

## CCCCCCOc1ccc(Cc2cnc(N)nc2N)cc1 [compound 1]
[1]; HeLa, protein UQCRC1
  fold changes relative to vehicle control: 1.09
[2]; HeLa, protein CLTB
  fold changes relative to vehicle control: 0.82
[3]; HeLa, protein FLVCR1
  fold changes relative to vehicle control: 0.78
[4]; protein RPS27A, HeLa
  fold changes relative to vehicle control: 1.24
[5]; protein HK2, HeLa
  fold changes relative to vehicle control: 1.11
[6]; captured protein NIF3L1, HeLa
  fold changes relative to vehicle control: 0.5

## Nc1nc2cccc(-c3ccccc3)c2n1Cc1ccc(Cl)c(Cl)c1 [compound 3]
[1]; HeLa, protein UQCRC1
  fold changes relative to vehicle control: 0.96
[2]; HeLa, protein CLTB
  fold changes relative to vehicle control: 0.94
[3]; HeLa, protein FLVCR1
  fold changes relative to vehicle control: 0.75
[4]; protein RPS27A, HeLa
  fold changes relative to vehicle control: 1.01
[5]; protein HK2, HeLa
  fold changes relative to vehicle control: 0.9
[6]; captured protein NIF3L1, HeLa
  fold changes relative to vehicle control: 0.98

## NCCOCCOCC(=O)Nc1nc2ncc(CNc3ccc(C(=O)NC(CCC(=O)O)C(=O)O)cc3)nc2c(=O)[nH]1 (stereo not drawn) [compound 6]
[1]; HeLa, captured protein UQCRC1
  fold changes relative to vehicle control: 0.95
[2]; HeLa, captured protein CLTB
  fold changes relative to vehicle control: 1.23
[3]; protein FLVCR1, HeLa
  fold changes relative to vehicle control: 0.62
[4]; HeLa, protein RPS27A (UBIQUITIN AND RIBOSOMAL PROTEIN S27A PRECURSOR)
  fold changes relative to vehicle control: 1.51
[5]; HeLa, protein HK2
  fold changes relative to vehicle control: 1.21
[6]; protein NIF3L1, HeLa
  fold changes relative to vehicle control: 0.25

## Nc1nc2[nH]cc(CCc3ccc(C(=O)N[C@@H](CCC(=O)O)C(=O)O)cc3)c2c(=O)[nH]1 [PTX, pemetrexed]
[1]
  fold changes relative to vehicle control: 0.88
[2]
  fold changes relative to vehicle control: 1.2
[3]
  fold changes relative to vehicle control: 0.59
[4]
  fold changes relative to vehicle control: 1.29
[5]
  fold changes relative to vehicle control: 1.02
[6]
  fold changes relative to vehicle control: 0.9
